Values after ≈ are worked out from the molar mass of the structure shown. Values joined by “and” are separate entries in the source; they are usually repeats but may differ in a detail not shown here. Equal entries are not always repeated. Marks after values point to notes of the source that are not given here. Where a SMILES comes first, the peptide text is derived from it. The star is where a group is joined. Myristoyl = CCCCCCCCCCCCCC(=O)*
Assays:
[1] = tested on: A. baumannii ATCC BAA 1605; conditions: planktonic cells, analyses performed in the previous study; cited from earlier work
From the text: Table 2 Antimicrobial activity (MIC [µg/mL]) of lipopeptides 1–18 against planktonic cells. | column: A. baumannii ATCC BAA 1605

S. aureus ATCC 33591 = conditions: planktonic cells, analyses performed in the previous study; cited from earlier work
From the text: Table 2 Antimicrobial activity (MIC [µg/mL]) of lipopeptides 1–18 against planktonic cells. | column: S. aureus ATCC 33591

[2] = tested on: K. pneumoniae ATCC 700603; conditions: planktonic cells, analyses performed in the previous study; cited from earlier work
From the text: Table 2 Antimicrobial activity (MIC [µg/mL]) of lipopeptides 1–18 against planktonic cells. | column: K. pneumoniae ATCC 700603

[3] = tested on: human red blood cells (RBCs); conditions: cited from earlier work
C. glabrata ATCC 15126 = assay type: cell-based, Candida glabrata; conditions: ATCC 15126, 24 h
Description: The Acinetobacter baumannii ATCC BAA-1605, Enterococcus faecium ATCC 700221, Klebsiella aerogenes ATCC 13048, Klebsiella pneumoniae ATCC 700603, Pseudomonas aeruginosa ATCC 9027, Staphylococcus aureus ATCC 33591, Candida glabrata ATCC 15126, strains were acquired from the American Type Culture Collection (ATCC). All the strains were stored at −80 °C in Roti-Store cryo vials and were transferred into fresh Mueller–Hinton broth (MHB, Becton Dickinson, Warsaw, Poland) for bacteria or RPMI-1640 (Sigma-Aldrich, Steinheim, Germany) for fungi before the tests and incubated for 24 h at 37 °C. Then, the cultures were seeded on the Mueller–Hinton agar (BioMaxima, Lublin, Poland) or Sabouraud dextrose agar (SDA, BioMaxima, Lublin, Poland) plates, respectively, and incubated as just mentioned. These agar cultures were used for further microbiological assays. Cell densities for all assays were adjusted spectrophotometrically (Multiskan GO Microplate Spectrophotometer, Thermo Fisher Scientific, Vantaa, Finland) at 600 and 530 nm for bacteria and fungi, respectively.
The MICs were determined using a broth microdilution method according to the Clinical and Laboratory Standard Institute guidelines. For this purpose, initial inoculums of bacteria (5 × 10^5 CFU/mL) in MHB and yeasts (2 × 10^3 CFU/mL) in RPMI-1640 with 2% D-glucose were exposed to the ranging concentration of lipopeptides (1–512 μg/mL) and incubated at 37 °C for 18 h and 24 h, respectively. The experiments were conducted on 96-well microtiter polystyrene plates (Kartell, Italy). The growth was assessed visually after incubation and the MIC was assumed as the lowest peptide concentration at which a noticeable growth of microorganisms was inhibited. All experiments were conducted in triplicate.

MTT assay, cytotoxicity = assay type: cell-based, human; conditions: HaCaT, 24 h incubation at 37 °C, 0.5–500 μg/mL, six replicates per concentration, repeated at least twice
Description: To evaluate the cytotoxicity of the test peptides (IC50), the classic MTT assay on 96-well plates was performed for human keratinocytes (HaCaT) which were acquired from the ATCC. The assay was based on colorimetric determination of the cell metabolic activity where the color intensity reflected the number of live cells that could be measured spectrophotometrically. The cell line was cultured in a Dulbecco’s modified Eagle Medium (Invitrogen) supplemented with 10% fetal bovine serum (v/v), 100 units/mL of penicillin, 100 μg/mL of streptomycin, and 2 mM L-glutamine and was kept at 37 °C in a humidified 5% CO2 incubator. Briefly, a day after plating of 500 cells per well, a series of concentrations (0.5–500 μg/mL) of the test compounds were applied. DMSO was added to the control cells at a final concentration of 1.0% (v/v), which was related to the maximum concentration of the solvent compounds used in the experiment. After 24 h of incubation at 37 °C (humidified 5% CO2 incubator) with the peptides, a medium containing 1 mg/mL of MTT was added to the wells up to a final concentration of 0.5 mg/mL. Subsequently, the plates were incubated at 37 °C for 4 h. Then, the medium was aspirated, and the formazan product was solubilized with DMSO. The background absorbance at 630 nm was subtracted from that at 570 nm for each well (Epoch, BioTek Instruments, Winooski, VT, USA). Six replicates were conducted for each concentration. All experiments were repeated at least twice and the resulting IC50 values were calculated with a GraFit 7 software (v. 7.0, Erithacus, Berkley, CA, USA).
The selectivity indexes were calculated for all the strains as IC50/MIC. According to IC50, in most cases, glycosylation caused only a slight decrease in toxicity. However, in contrast with SI calculated for HC50, the differences between USCLs and gUSCLs are not so distinct. […] Moreover, toxicity of USCLs and gUSCLs is high and exceeds their antimicrobial activity. The lipopetides were not selective against Gram-negative strains (K. pneumoniae, A. baumannii, P. aeruginosa, K. aerogenes) over human cells. A few USCLs were selective (SI > 1) against E. faecium and S. aureus with SI up to 1.87; and some gUSCLs were selective against E. faecium but not against S. aureus, with SI between 0.63 and 1.73. […] In this case, SI of gUSCLs was noticeably […] than that of corresponding parent USCLs (2.07, 1.99, 2.67 vs. 2.53, 2.36, 3.46, respectively). Selectivity indexes were plotted against adjusted retention time (Figures S15–S21). A moderate linear correlation was found in USCLs and K. pneumoniae, C. glabrata, and gUSCLs and K. pneumoniae, K. aerogenes (R^2 between 0.6064 and 0.6481). A relatively high linear correlation was obtained for USCLs and K. aerogenes (R^2 of 0.8214) and also for gUSCLs and C. glabrata (R^2 of 0.9223).

K. aerogenes ATCC 13048 = conditions: planktonic cells, analyses performed in the previous study; cited from earlier work
From the text: Table 2 Antimicrobial activity (MIC [µg/mL]) of lipopeptides 1–18 against planktonic cells. | column: K. aerogenes ATCC 13048

P. aeruginosa ATCC 9027 = conditions: planktonic cells, analyses performed in the previous study; cited from earlier work
From the text: Table 2 Antimicrobial activity (MIC [µg/mL]) of lipopeptides 1–18 against planktonic cells. | column: P. aeruginosa ATCC 9027

[4] = Determination of peptide hydrophobicity with RP-HPLC (adjusted retention time); assay type: physicochemical; conditions: RP-HPLC as measure of hydrophobicity; Waters X-Bridge Shield RP-18 3.0 × 100 mm, 3.5 μm; linear 20–80% acetonitrile in water over 30 min, 0.1% TFA; 0.5 mL/min; 25.0 °C; peptide 1 g/L in water (0.1% TFA); UV 214 nm; triplicate
Description: To determine peptide hydrophobicity, a Waters Alliance e2695 system with a Waters 2998 PDA Detector was used. All analyses were carried out on a Waters X-Bridge Shield RP-18 column (3.0 × 100 mm, 3.5 μm particle size, 130 Å pore size). The peptides were dissolved in water (0.1% TFA, v/v) up to a concentration of 1 g/L. UV detection at 214 nm was used, and samples (10 μL) were eluted with a linear 20–80% acetonitrile gradient in deionized water over 30 min at 25.0 ± 0.1 °C. The mobile phase flow rate was 0.5 mL/min. Both eluents contained 0.1% (v/v) of TFA. Each peptide sample was analyzed in triplicate. Maximum standard deviation and coefficient of variation were 0.046 and 0.23%, respectively.
After synthesis and purification, all the products were analyzed with MS and HPLC to confirm purity and identity of the compounds. […] The chromatographic analyses were performed with RP-HPLC; retention time refers to hydrophobicity of the lipopeptide.

E. faecium ATCC 700221 = conditions: planktonic cells, analyses performed in the previous study; cited from earlier work
From the text: However, enhanced activity with elongation of the hydrocarbon chain length in fatty acid residue and the change of serine position to 2 or 3 could be seen. […] Generally, the lo ...

P. aeruginosa biofilm = tested on: P. aeruginosa biofilm; set-up: method as in PMID 33804887; conditions: P. aeruginosa biofilm (Gram-negative strains); previous studies; cited from earlier work
A. baumannii biofilm = tested on: A. baumannii biofilm; set-up: method as in PMID 33804887; conditions: A. baumannii biofilm (Gram-negative strains); previous studies; cited from earlier work
K. pneumoniae biofilm = tested on: K. pneumoniae biofilm; set-up: method as in PMID 33804887; conditions: K. pneumoniae biofilm (Gram-negative strains); previous studies; cited from earlier work
S. aureus biofilm = tested on: S. aureus biofilm; set-up: method as in PMID 33804887; conditions: S. aureus ATCC 33591 biofilm; previous studies; cited from earlier work

Compound | MIC [1] | MIC (S. aureus ATCC 33591) | MIC [2] | HC50 (hemolytic activity) [3] | MIC (C. glabrata ATCC 15126) | IC50 (MTT assay, cytotoxicity) | MIC (K. aerogenes ATCC 13048) | MIC (P. aeruginosa ATCC 9027) | Adjusted Retention Time [4] | MIC (E. faecium ATCC 700221) | MBEC (P. aeruginosa biofilm) | MBEC (A. baumannii biofilm) | MBEC (K. pneumoniae biofilm) | MBEC (S. aureus biofilm)
CCCCCCCCCCCCCC(=O)N[C@@H](CO)C(=O)N[C@@H](CCCNC(=N)N)C(=O)N[C@@H](CCCNC(=N)N)C(N)=O [Peptide 1, C14-SRR-NH2] (Myristoyl-Ser-Arg-Arg-NH2) | 32 * µg/mL | 16 * µg/mL | 128 * µg/mL | 41.54 ± 1.29 µg/mL | 32 mg/L (≈ 51 µM) | 1.41 ± 0.29 mg/L (≈ 2.25 µM) | 128 * µg/mL | 32 * µg/mL | 16.55 min | 16 µg/mL and 16 * µg/mL | – | – | – | –
C12-RR-NH2 [Peptide C12-RR-NH2] | – | – | – | – | – | – | – | – | – | – | 512 µg/mL | 512 µg/mL | 512 µg/mL | 64 µg/mL

Reference: paper PMC9855884, “Glycosylated Lipopeptides—Synthesis and Evaluation of Antimicrobial Activity and Cytotoxicity” (Biomolecules, 2023)
